Data from patent publication US10405547B2, “Substituted cyclic amides as herbicides” (FMC Corporation, priority 2015, dated 2019).

Key:
Format in all cases: in vivo
[1] = tested on: blackgrass (Alopecurus myosuroides); test: Test A postemergence, blackgrass; conditions: visual injury, 0 to 100 scale (0 no effect, 100 complete control), approximately 10 days
From the text: (§1) Test A Seeds of plant species selected from barnyardgrass (Echinochloa crus-galli), kochia (Kochia scoparia), ragweed (common ragweed, Ambrosia elatior), ryegrass, Italian (Lolium multiflorum), foxtail, giant (Setaria faberii), and pigweed (Amaranthus retroflexus), were planted into a blend of loam soil and sand and treated preemergence with a directed soil spray using test chemicals formulated in a non-phytotoxic solvent mixture which included a surfactant.
(§2) At the same time, plants selected from these weed species and also blackgrass (Alopecurus myosuroides), galium (catchweed bedstraw, Galium aparine), wheat (Triticum aestivum), and corn (Zea mays) were planted in pots containing the same blend of loam soil and sand and treated with postemergence applications of test chemicals formulated in the same manner. Plants ranged in height from 2 to 10 cm and were in the one- to two-leaf stage for the postemergence treatment. Treated plants and untreated controls were maintained in a greenhouse for approximately 10 days, after which time all treated plants were compared to untreated controls and visually evaluated for injury. Plant response ratings, summarized in Table A, are based on a 0 to 100 scale where 0 is no effect and 100 is complete control. A dash (-) response means no test result.

[2] = tested on: barnyardgrass (Echinochloa crus-galli); test: Test A postemergence, barnyardgrass; conditions: visual injury, 0 to 100 scale (0 no effect, 100 complete control), approximately 10 days
From the text: as §1, §2

kochia (Kochia scoparia) [3] = test: Test A preemergence, kochia; conditions: 0 to 100 scale (0 no effect, 100 complete control)
From the text: as §1, §2

kochia (Kochia scoparia) [4] = test: Test A postemergence, kochia; conditions: visual injury, 0 to 100 scale (0 no effect, 100 complete control), approximately 10 days
From the text: as §1, §2

[5] = tested on: pigweed (Amaranthus retroflexus); test: Test A preemergence, pigweed; conditions: 0 to 100 scale (0 no effect, 100 complete control)
From the text: as §1, §2

[6] = tested on: galium (catchweed bedstraw, Galium aparine); test: Test A postemergence, galium; conditions: visual injury, 0 to 100 scale (0 no effect, 100 complete control), approximately 10 days
From the text: as §1, §2

[7] = tested on: ryegrass, Italian (Lolium multiflorum); test: Test A preemergence, Italian ryegrass; conditions: 0 to 100 scale (0 no effect, 100 complete control)
From the text: as §1, §2

[8] = tested on: foxtail, giant (Setaria faberii); test: Test A postemergence, giant foxtail; conditions: visual injury, 0 to 100 scale (0 no effect, 100 complete control), approximately 10 days
From the text: as §1, §2

[9] = tested on: wheat (Triticum aestivum); test: Test A postemergence, wheat; conditions: visual injury, 0 to 100 scale (0 no effect, 100 complete control), approximately 10 days
From the text: as §1, §2

[10] = tested on: ragweed (common ragweed, Ambrosia elatior); test: Test A postemergence, ragweed; conditions: visual injury, 0 to 100 scale (0 no effect, 100 complete control), approximately 10 days
From the text: as §1, §2

[11] = tested on: barnyardgrass (Echinochloa crus-galli); test: Test A preemergence, barnyardgrass; conditions: 0 to 100 scale (0 no effect, 100 complete control)
From the text: as §1, §2

corn (Zea mays) = test: Test A postemergence, corn; conditions: visual injury, 0 to 100 scale (0 no effect, 100 complete control), approximately 10 days
From the text: as §1, §2

[12] = tested on: pigweed (Amaranthus retroflexus); test: Test A postemergence, pigweed; conditions: visual injury, 0 to 100 scale (0 no effect, 100 complete control), approximately 10 days
From the text: as §1, §2

[13] = tested on: foxtail, giant (Setaria faberii); test: Test A preemergence, giant foxtail; conditions: 0 to 100 scale (0 no effect, 100 complete control)
From the text: as §1, §2

[14] = tested on: ragweed (common ragweed, Ambrosia elatior); test: Test A preemergence, ragweed; conditions: 0 to 100 scale (0 no effect, 100 complete control)
From the text: as §1, §2

[15] = tested on: ryegrass, Italian (Lolium multiflorum); test: Test A postemergence, Italian ryegrass; conditions: visual injury, 0 to 100 scale (0 no effect, 100 complete control), approximately 10 days
From the text: as §1, §2

| SMILES | Plant response rating, Blackgrass ([1]; 125 g ai/ha) | Plant response rating, Blackgrass ([1]; 500 g ai/ha) | Plant response rating, Barnyardgrass ([2]; 125 g ai/ha) | Plant response rating, Barnyardgrass ([2]; 500 g ai/ha) | Plant response rating, Kochia (kochia (Kochia scoparia) [3]; 125 g ai/ha) | Plant response rating, Kochia (kochia (Kochia scoparia) [3]; 500 g ai/ha) | Plant response rating, Kochia (kochia (Kochia scoparia) [4]; 125 g ai/ha) | Plant response rating, Kochia (kochia (Kochia scoparia) [4]; 500 g ai/ha) | Plant response rating, Pigweed ([5]; 125 g ai/ha) | Plant response rating, Pigweed ([5]; 500 g ai/ha) | Plant response rating, Galium ([6]; 125 g ai/ha) | Plant response rating, Galium ([6]; 500 g ai/ha) | Plant response rating, Ryegrass, Italian ([7]; 125 g ai/ha) | Plant response rating, Ryegrass, Italian ([7]; 500 g ai/ha) | Plant response rating, Foxtail, Giant ([8]; 125 g ai/ha) | Plant response rating, Foxtail, Giant ([8]; 500 g ai/ha) | Plant response rating, Wheat ([9]; 125 g ai/ha) | Plant response rating, Wheat ([9]; 500 g ai/ha) | Plant response rating, Ragweed ([10]; 125 g ai/ha) | Plant response rating, Ragweed ([10]; 500 g ai/ha) | other results |
| --- | --- | --- | --- | --- | --- | --- | --- | --- | --- | --- | --- | --- | --- | --- | --- | --- | --- | --- | --- | --- | --- |
| O=C1NCC(c2cccc(COc3ccccc3)c2)C1C(=O)Nc1ccc(F)c(F)c1F (stereo not drawn) [Compound 17] | 0 | 0 | 30 | 40 | 0 | 30 | 0 | 0 | 0 | 0 | 50 | 30 | 0 | 0 | 30 | 40 | 0 | 0 | 0 | 0 | Plant response rating, Barnyardgrass ([11]; 125 g ai/ha): 20; Plant response rating, Barnyardgrass ([11]; 500 g ai/ha): 70; Plant response rating, Corn (corn (Zea mays); 125 g ai/ha): 0; Plant response rating, Corn (corn (Zea mays); 500 g ai/ha): 0; Plant response rating, Pigweed ([12]; 125 g ai/ha): 0; Plant response rating, Pigweed ([12]; 500 g ai/ha): 0; Plant response rating, Foxtail, Giant ([13]; 125 g ai/ha): 50; Plant response rating, Foxtail, Giant ([13]; 500 g ai/ha): 80; Plant response rating, Ragweed ([14]; 125 g ai/ha): 0; Plant response rating, Ragweed ([14]; 500 g ai/ha): 0; Plant response rating, Ryegrass, Italian ([15]; 125 g ai/ha): 0; Plant response rating, Ryegrass, Italian ([15]; 500 g ai/ha): 0 |
| O=C1NCC(c2cccc(Oc3ncc(Cl)cn3)c2)C1C(=O)Nc1cccc(F)c1F (stereo not drawn) [Compound 56] | 0 | 0 | 0 | 30 | 0 | 0 | 0 | 0 | 0 | 0 | 0 | 20 | 0 | 0 | 0 | 60 | 0 | 0 | 0 | 0 | Plant response rating, Barnyardgrass ([11]; 125 g ai/ha): 30; Plant response rating, Barnyardgrass ([11]; 500 g ai/ha): 70; Plant response rating, Corn (corn (Zea mays); 125 g ai/ha): 0; Plant response rating, Corn (corn (Zea mays); 500 g ai/ha): 0; Plant response rating, Pigweed ([12]; 125 g ai/ha): 0; Plant response rating, Pigweed ([12]; 500 g ai/ha): 0; Plant response rating, Foxtail, Giant ([13]; 125 g ai/ha): 0; Plant response rating, Foxtail, Giant ([13]; 500 g ai/ha): 0; Plant response rating, Ragweed ([14]; 125 g ai/ha): 0; Plant response rating, Ragweed ([14]; 500 g ai/ha): 0; Plant response rating, Ryegrass, Italian ([15]; 125 g ai/ha): 0; Plant response rating, Ryegrass, Italian ([15]; 500 g ai/ha): 0 |
| O=C1NCC(c2cccc(Cn3cncn3)c2)C1C(=O)Nc1ccccc1F (stereo not drawn) [Compound 31] | 0 | 0 | 0 | 0 | 0 | 0 | 0 | 0 | 0 | 0 | 0 | 20 | 0 | 0 | 0 | 0 | 0 | 0 | 0 | 0 | Plant response rating, Barnyardgrass ([11]; 125 g ai/ha): 0; Plant response rating, Barnyardgrass ([11]; 500 g ai/ha): 0; Plant response rating, Corn (corn (Zea mays); 125 g ai/ha): 0; Plant response rating, Corn (corn (Zea mays); 500 g ai/ha): 0; Plant response rating, Pigweed ([12]; 125 g ai/ha): 0; Plant response rating, Pigweed ([12]; 500 g ai/ha): 0; Plant response rating, Foxtail, Giant ([13]; 125 g ai/ha): 0; Plant response rating, Foxtail, Giant ([13]; 500 g ai/ha): 0; Plant response rating, Ragweed ([14]; 125 g ai/ha): 0; Plant response rating, Ragweed ([14]; 500 g ai/ha): 0; Plant response rating, Ryegrass, Italian ([15]; 125 g ai/ha): 0; Plant response rating, Ryegrass, Italian ([15]; 500 g ai/ha): 0 |
